Source: ChEMBL document CHEMBL4196128 (ACS Med Chem Lett, 2018)
pIC50: −log10 of the molar value.

Legend:
[1] = target: Cytochrome P450 3A4 (Homo sapiens, UniProt P08684); experiment: Inhibition of CYP3A4 (unknown origin) preincubated followed by substrate addition; assay type: ADME
[2] = AUC in rat at 10 mg/kg; assay type: ADME, organism-based; conditions: in vivo
[3] = system: COLO 205; experiment: Antiproliferative activity against human COLO205 cells harboring BRAF V600E/D mutant measured after 4 days; assay type: functional, cell-based; conditions: COLO 205, 96 h
[4] = target: T1, hERG (KCNH2) (Homo sapiens, UniProt Q12809); experiment: Inhibition of human ERG at 1.5 mg/ml by binding assay relative to control; design: dose or concentration left out as unconfirmed
[5] = target: T1, hERG (KCNH2); experiment: Inhibition of human ERG at 5 mg/ml by binding assay relative to control; design: dose or concentration left out as unconfirmed
[6] = target: Mitogen-activated protein kinase 3 (Homo sapiens, UniProt P27361); experiment: Inhibition of ERK1 (unknown origin) using peptide substrate measured after 45 mins by IMAP assay
[7] = target: Mitogen-activated protein kinase 1 (Homo sapiens, UniProt P28482); experiment: Inhibition of ERK2 (unknown origin) using peptide substrate measured after 45 mins by IMAP assay
[8] = system: HT-29; experiment: Antiproliferative activity against human HT-29 cells harboring BRAF V600E/D mutant measured after 4 days; assay type: functional, cell-based; conditions: HT-29, 96 h
[9] = AUC in dog at 10 mg/kg; assay type: ADME, organism-based, Canis lupus familiaris; conditions: in vivo
[10] = Clearance in human hepatocytes assessed per million cells; assay type: ADME, cell-based, Hepatocyte
[11] = Clearance in dog hepatocytes assessed per million cells; assay type: ADME, cell-based, Canis lupus familiaris, Hepatocyte
[12] = target: T1, hERG (KCNH2); experiment: Inhibition of human ERG at 1 uM by IonWork assay relative to control
[13] = target: T1, hERG (KCNH2); experiment: Inhibition of human ERG at 10 uM by IonWork assay relative to control
[14] = Half life in rat; assay type: ADME, organism-based; conditions: in vivo
[15] = Plasma clearance in rat; assay type: ADME, organism-based
[16] = Mean residence time in rat; assay type: ADME, organism-based; conditions: in vivo
[17] = Drug metabolism in bile duct-cannulated rat plasma assessed as glutathione conjugation at 10 mg/kg, iv by LC/ESI-MS/MS analysis; assay type: ADME, organism-based; conditions: in vivo
[18] = Drug metabolism in bile duct-cannulated rat bile assessed as oxidative dealkylation by measuring loss of isopropyl group at 10 mg/kg, iv by LC/ESI-MS/MS analysis; assay type: ADME, organism-based; conditions: in vivo
[19] = Drug metabolism in bile duct-cannulated rat plasma assessed as oxidation at 10 mg/kg, iv by LC/ESI-MS/MS analysis; assay type: ADME, organism-based; conditions: in vivo
[20] = Drug metabolism in bile duct-cannulated rat plasma assessed as oxidative dealkylation by measuring amide cleavage at 10 mg/kg, iv by LC/ESI-MS/MS analysis; assay type: ADME, organism-based; conditions: in vivo
[21] = Drug metabolism in bile duct-cannulated rat plasma assessed as oxidative dealkylation by measuring loss of isopropyl group at 10 mg/kg, iv by LC/ESI-MS/MS analysis; assay type: ADME, organism-based; conditions: in vivo
[22] = Drug metabolism in bile duct-cannulated rat urine assessed as glutathione conjugation at 10 mg/kg, iv by LC/ESI-MS/MS analysis; assay type: ADME, organism-based; conditions: in vivo
[23] = Drug metabolism in bile duct-cannulated rat urine assessed as conjugation at 10 mg/kg, iv by LC/ESI-MS/MS analysis; assay type: ADME, organism-based; conditions: in vivo
[24] = Drug metabolism in bile duct-cannulated rat urine assessed as oxidative dealkylation by measuring amide cleavage at 10 mg/kg, iv by LC/ESI-MS/MS analysis; assay type: ADME, organism-based; conditions: in vivo
[25] = Drug metabolism in bile duct-cannulated rat urine assessed as oxidative dealkylation by measuring loss of isopropyl group at 10 mg/kg, iv by LC/ESI-MS/MS analysis; assay type: ADME, organism-based; conditions: in vivo
[26] = Drug metabolism in bile duct-cannulated rat bile assessed as oxidative dealkylation by measuring amide cleavage at 10 mg/kg, iv by LC/ESI-MS/MS analysis; assay type: ADME, organism-based; conditions: in vivo
[27] = Drug metabolism in bile duct-cannulated rat urine assessed as oxidation at 10 mg/kg, iv by LC/ESI-MS/MS analysis; assay type: ADME, organism-based; conditions: in vivo
[28] = Drug metabolism in bile duct-cannulated rat plasma assessed as conjugation at 10 mg/kg, iv by LC/ESI-MS/MS analysis; assay type: ADME, organism-based; conditions: in vivo
[29] = Drug metabolism in bile duct-cannulated rat bile assessed as conjugation at 10 mg/kg, iv by LC/ESI-MS/MS analysis; assay type: ADME, organism-based; conditions: in vivo
[30] = Drug metabolism in bile duct-cannulated rat bile assessed as oxidation at 10 mg/kg, iv by LC/ESI-MS/MS analysis; assay type: ADME, organism-based; conditions: in vivo

Mitogen-activated protein kinase 1, sequence (P28482 whole entry): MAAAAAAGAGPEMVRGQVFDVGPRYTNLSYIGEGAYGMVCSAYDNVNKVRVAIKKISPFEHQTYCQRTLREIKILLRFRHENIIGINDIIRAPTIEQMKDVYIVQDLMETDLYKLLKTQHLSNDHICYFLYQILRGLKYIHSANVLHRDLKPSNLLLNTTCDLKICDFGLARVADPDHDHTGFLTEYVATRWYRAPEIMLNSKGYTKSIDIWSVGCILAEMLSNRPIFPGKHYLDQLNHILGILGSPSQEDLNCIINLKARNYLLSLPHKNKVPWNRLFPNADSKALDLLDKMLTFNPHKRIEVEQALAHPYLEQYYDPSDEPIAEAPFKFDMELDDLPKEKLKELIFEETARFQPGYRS
T1 sequence (Q12809 whole entry): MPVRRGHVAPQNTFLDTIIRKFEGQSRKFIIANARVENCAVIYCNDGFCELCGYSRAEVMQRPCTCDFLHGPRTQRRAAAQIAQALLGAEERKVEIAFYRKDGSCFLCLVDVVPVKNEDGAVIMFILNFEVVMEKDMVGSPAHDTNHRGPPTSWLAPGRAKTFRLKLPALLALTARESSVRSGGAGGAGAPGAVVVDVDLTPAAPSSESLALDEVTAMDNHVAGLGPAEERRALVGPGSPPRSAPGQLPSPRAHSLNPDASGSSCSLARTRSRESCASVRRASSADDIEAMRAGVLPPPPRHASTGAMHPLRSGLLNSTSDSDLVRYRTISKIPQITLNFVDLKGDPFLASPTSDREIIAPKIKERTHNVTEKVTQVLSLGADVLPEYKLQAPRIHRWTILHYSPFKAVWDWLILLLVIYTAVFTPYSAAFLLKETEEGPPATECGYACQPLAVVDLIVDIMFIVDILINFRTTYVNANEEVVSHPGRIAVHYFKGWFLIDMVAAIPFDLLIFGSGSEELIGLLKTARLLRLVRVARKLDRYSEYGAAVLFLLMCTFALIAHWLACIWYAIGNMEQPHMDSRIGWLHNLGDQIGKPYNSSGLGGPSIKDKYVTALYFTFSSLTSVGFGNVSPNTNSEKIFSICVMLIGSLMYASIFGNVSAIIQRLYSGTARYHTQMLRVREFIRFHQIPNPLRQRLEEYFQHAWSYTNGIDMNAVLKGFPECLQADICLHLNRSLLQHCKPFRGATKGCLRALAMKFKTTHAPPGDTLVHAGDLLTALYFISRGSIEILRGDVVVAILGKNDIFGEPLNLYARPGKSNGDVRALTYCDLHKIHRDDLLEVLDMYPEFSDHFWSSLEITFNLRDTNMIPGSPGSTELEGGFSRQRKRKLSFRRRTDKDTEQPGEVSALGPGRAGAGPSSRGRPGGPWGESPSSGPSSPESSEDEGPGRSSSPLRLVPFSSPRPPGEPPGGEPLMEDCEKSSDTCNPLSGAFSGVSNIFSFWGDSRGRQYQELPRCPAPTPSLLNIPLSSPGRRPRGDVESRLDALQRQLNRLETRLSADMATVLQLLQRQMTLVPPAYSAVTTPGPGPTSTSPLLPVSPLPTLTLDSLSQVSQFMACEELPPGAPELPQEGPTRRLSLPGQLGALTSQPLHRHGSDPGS
Mitogen-activated protein kinase 3, sequence (P27361 whole entry): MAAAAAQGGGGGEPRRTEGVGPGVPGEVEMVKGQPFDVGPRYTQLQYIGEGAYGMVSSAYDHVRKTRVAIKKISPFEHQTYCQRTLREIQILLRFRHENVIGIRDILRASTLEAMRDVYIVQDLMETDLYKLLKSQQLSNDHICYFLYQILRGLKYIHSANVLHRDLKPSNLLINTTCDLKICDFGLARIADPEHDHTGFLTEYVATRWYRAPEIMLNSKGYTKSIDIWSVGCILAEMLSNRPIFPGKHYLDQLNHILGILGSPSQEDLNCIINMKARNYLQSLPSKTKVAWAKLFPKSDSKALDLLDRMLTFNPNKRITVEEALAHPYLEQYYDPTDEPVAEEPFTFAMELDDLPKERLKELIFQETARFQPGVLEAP
Cytochrome P450 3A4, sequence (P08684 whole entry): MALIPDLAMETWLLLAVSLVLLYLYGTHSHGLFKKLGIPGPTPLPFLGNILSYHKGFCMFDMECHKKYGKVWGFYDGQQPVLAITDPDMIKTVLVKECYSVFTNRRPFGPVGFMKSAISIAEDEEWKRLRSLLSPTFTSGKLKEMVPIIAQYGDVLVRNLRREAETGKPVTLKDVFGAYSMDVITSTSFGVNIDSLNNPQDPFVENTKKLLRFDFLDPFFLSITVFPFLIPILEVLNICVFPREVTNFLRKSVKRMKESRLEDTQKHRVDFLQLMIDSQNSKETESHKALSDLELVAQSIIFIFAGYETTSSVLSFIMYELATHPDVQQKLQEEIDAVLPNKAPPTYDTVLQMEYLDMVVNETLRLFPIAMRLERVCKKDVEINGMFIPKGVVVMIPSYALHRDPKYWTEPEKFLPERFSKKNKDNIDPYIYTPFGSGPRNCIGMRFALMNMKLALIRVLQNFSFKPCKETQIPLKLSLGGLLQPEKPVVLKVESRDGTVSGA

SMILES	pIC50 [3]	pIC50 [6]	pIC50 [7]	pIC50 [8]	inhibition [4] [%]	inhibition [5] [%]	also measured
CS[C@@]1(C(=O)Nc2ccc3[nH]nc(-c4ccc5c(c4)OCO5)c3c2)CCN(CC(=O)N2CC=C(c3ccc(-c4ncccn4)cc3)CC2)C1	7.54	7.35	7.89	7.11	19	16	pIC50 [1]: 6.52; AUC [2]: 106 µM·h
CS[C@@]1(C(=O)Nc2ccc3[nH]nc(-c4ccc(F)cc4)c3c2)CCN(CC(=O)N2CC=C(c3ccc(-c4ncccn4)cc3)CC2)C1	7.35	7.39		6.93			AUC [9]: 17 µM·h; CLH [10]: 18 µL/min; AUC [2]: 25.9 to 26 µM·h; CLH [11]: 7 µL/min
COc1cc(-c2n[nH]c3ccc(NC(=O)[C@]4(SC)CCN(CC(=O)N5CC=C(c6ccc(-c7ncn(C)n7)cc6)CC5)C4)cc23)ccn1	8.00	8.10	8.77	7.10			inhibition at 1 µM [12]: 0.8%; inhibition at 10 µM [13]: 7.2%
CS[C@@]1(C(=O)Nc2ccc3[nH]nc(-c4ccnc(OC(C)C)c4)c3c2)CCN(CC(=O)N2CC=C(c3ccc(-c4ncn(C)n4)cc3)CC2)C1	7.39	7.13	7.57	7.00	3	10	
CS[C@@]1(C(=O)Nc2ccc3[nH]nc(-c4ccc(F)cc4)c3c2)CCN(CC(=O)N2CCN(c3ccc(-c4ncccn4)cc3)CC2)C1	7.33	7.60		7.06	3	47	
CS[C@@]1(C(=O)Nc2ccc3[nH]nc(-c4ccc(F)cc4)c3c2)CCN(CC(=O)N2CC=C(c3ccc(-c4ncccn4)cc3F)CC2)C1	7.08	6.87	7.60	6.68	11	32	
COc1cc(-c2n[nH]c3ccc(NC(=O)[C@]4(SC)CCN(CC(=O)N5CC=C(c6ccc(-c7ncccn7)cc6)CC5)C4)cc23)ccn1	7.47	7.72	8.30	7.22	2	15	inhibition at 1 µM [12]: 7%; inhibition at 10 µM [13]: 19%
CS[C@@]1(C(=O)Nc2ccc3[nH]nc(-c4ccc(F)cc4)c3c2)CCN(CC(=O)N2CCN(c3ccc(-c4ncccn4)cc3F)CC2)C1		6.18	6.94				
O=C(Nc1ccc2[nH]nc(-c3ccncc3)c2c1)[C@@H]1CCN(CC(=O)N2CCN(c3ccc(-c4ncccn4)cc3)CC2)C1	7.80	8.10		7.23			half-life [14]: 1.5 h; clearance [15]: 7.32 L/h/kg; MRT [16]: 1.6 h
CS[C@]1(C(=O)Nc2ccc3[nH]nc(-c4ccc(OC(C)C)nc4)c3c2)CCN(CC(=O)N2CC=C(c3ccc(-c4ncn(C)n4)cc3)CC2)C1	< 6.00		6.14				inhibition at 1 µM [12]: 6%; inhibition at 10 µM [13]: 10%
[3H]c1cc(OC(C)C)nc([3H])c1-c1n[nH]c2ccc(NC(=O)[C@]3(SC)CCN(CC(=O)N4CC=C(c5ccc(-c6ncn(C)n6)cc5)CC4)C3)cc12							Drug metabolism [17]: Metabolite_Notdetected; Drug metabolism [18]: Metabolite_Detected; Drug metabolism [19]: Metabolite_Detected; Drug metabolism [20]: Metabolite_Detected; Drug metabolism [21]: Metabolite_Detected; Drug metabolism [22]: Metabolite_Notdetected; Drug metabolism [23]: Metabolite_Detected; Drug metabolism [24]: Metabolite_Detected; Drug metabolism [25]: Metabolite_Detected; Drug metabolism [26]: Metabolite_Detected; Drug metabolism [27]: Metabolite_Detected; Drug metabolism [28]: Metabolite_Detected; Drug metabolism [29]: Metabolite_Detected; Drug metabolism [30]: Metabolite_Detected

Further lines, with some results ahead:

pIC50 [3]	pIC50 [6]	pIC50 [7]	pIC50 [8]	SMILES	inhibition [4] [%]	inhibition [5] [%]	also measured
7.66	7.77	8.30	7.31	CCNc1nnc(-c2ccc(C3=CCN(C(=O)CN4CC[C@@](SC)(C(=O)Nc5ccc6[nH]nc(-c7ccc(F)cc7)c6c5)C4)CC3)cc2)o1	-3	6	
7.52	7.47	8.22	6.88	CCNc1ncc(-c2ccc(C3=CCN(C(=O)CN4CC[C@@](SC)(C(=O)Nc5ccc6[nH]nc(-c7ccnc(C)c7)c6c5)C4)CC3)cc2)s1	-7	-3	
7.12	7.37	7.64	6.61	CS[C@@]1(C(=O)Nc2ccc3[nH]nc(-c4ccc(F)cc4)c3c2)CCN(CC(=O)N2CCC(c3ccc(-c4ncccn4)cc3)CC2)C1	22	12	
< 6.95	6.68	7.44	6.27	CS[C@@]1(C(=O)Nc2ccc3[nH]nc(-c4ccc(F)cc4)c3c2)CCN(CC(=O)N2CC=C(c3ncc(-c4ncccn4)s3)CC2)C1	-5	10	
7.07	6.64	7.54	6.61	CC(C)Oc1ccc(-c2n[nH]c3ccc(NC(=O)[C@]4(S(C)(=O)=O)CCN(CC(=O)N5CC=C(c6ccc(-c7ncn(C)n7)cc6)CC5)C4)cc23)cn1			inhibition at 1 µM [12]: 4%; inhibition at 10 µM [13]: 5%
	6.02	6.54		CS[C@@]1(C(=O)Nc2ccc3[nH]nc(-c4ccc(F)cc4)c3c2)CCN(CC(=O)N2CC=C(c3nc(-c4ncccn4)cs3)CC2)C1	6	19	
7.24	7.03	7.89	7.10	CS[C@@]1(C(=O)Nc2ccc3[nH]nc(-c4ccc(OC(C)C)nc4)c3c2)CCN(CC(=O)N2CC=C(c3ccc(-c4ncccn4)cc3)CC2)C1	25	37	
